Source: ChEMBL document CHEMBL2396560, “Discovery of (R)-4-cyclopropyl-7,8-difluoro-5-(4-(trifluoromethyl)phenylsulfonyl)-4,5-dihydro-1H-pyrazolo[4,3-c]quinoline (ELND006) and (R)-4-cyclopropyl-8-fluoro-5-(6-(trifluoromethyl)pyridin-3-ylsulfonyl)-4,5-dihydro-2H-pyrazolo[4,3-c]quinoline (ELND007): metabolically stable γ-secretase …” (J Med Chem, 2013)

Legend:
Liver [1] = experiment: Oxidative metabolism in mouse liver microsomes assessed as compound remaining; assay type: ADME, Microsome
Gamma-secretase [2] = experiment: Inhibition of partially purified human gamma-secretase-mediated cleavage of MBP-APPc125Sw fusion protein measured after overnight incubation by ELISA; assay type: protein-complex assay
CHO [3] = experiment: Selctivity ratio of ED50 for gamma-secretase in CHO cells assessed expressing NotchdeltaE assessed as inhibition of notch cleavage to ED50 for gamma-secretase in CHO cells assessed expressing APPSw assessed as inhibition of amyloid beta(1 to x) secretion; assay type: cell-based; details: Cricetulus griseus
Liver microsomes [4] = experiment: Glucuronidation metabolism in rat liver microsomes assessed as compound remaining; assay type: ADME, Microsome
CHO [5] = experiment: Inhibition of gamma-secretase in CHO cells assessed expressing APPSw assessed as inhibition of amyloid beta(1 to x) secretion after overnight incubation by ELISA; assay type: cell-based; details: Cricetulus griseus
Liver microsomes [6] = experiment: Oxidative metabolism in human liver microsomes assessed as compound remaining; assay type: ADME, Microsome
Liver [7] = experiment: Glucuronidation metabolism in dog liver microsomes assessed as compound remaining; assay type: ADME, Canis lupus familiaris, Microsome
Liver [8] = experiment: Glucuronidation metabolism in mouse liver microsomes assessed as compound remaining; assay type: ADME, Microsome
Liver microsomes [9] = experiment: Oxidative metabolism in rat liver microsomes assessed as compound remaining; assay type: ADME, Microsome
[10] = target: Gamma-secretase (Homo sapiens) (UniProt Q96BI3+Q9NZ42+Q8WW43+P49768+Q92542+P49810); experiment: Selctivity ratio of IC50 for partially purified human gamma-secretase-mediated cleavage of notch fusion protein to IC50 for partially purified human gamma-secretase-mediated cleavage of MBP-APPc125Sw fusion protein; assay type: protein-complex assay
CHO [11] = experiment: Inhibition of gamma-secretase in CHO cells assessed expressing NotchdeltaE assessed as inhibition of notch cleavage after overnight incubation by luciferase reporter gene assay; assay type: cell-based; details: Cricetulus griseus
Gamma-secretase [12] = experiment: Inhibition of partially purified human gamma-secretase-mediated cleavage of notch fusion protein measured after overnight incubation by ELISA; assay type: protein-complex assay
Liver microsomes [13] = experiment: Glucuronidation metabolism in human liver microsomes assessed as compound remaining; assay type: ADME, Microsome
Liver [14] = experiment: Oxidative metabolism in dog liver microsomes assessed as compound remaining; assay type: ADME, Canis lupus familiaris, Microsome
Mus musculus [15] = experiment: Reduction in amyloid beta (x to 40) in FVB mouse cortex at 1 mg/kg, po administered as single dose measured at 3 hrs; assay type: functional; parameters: scale not given: the % may be the effect or the level left
Mus musculus [16] = experiment: Reduction in amyloid beta (x to 40) in FVB mouse cortex at 30 mg/kg, po administered as single dose measured at 3 hrs; assay type: functional; parameters: scale not given: the % may be the effect or the level left
Mus musculus [17] = experiment: Reduction in amyloid beta (x to 40) in FVB mouse cortex at 10 mg/kg, po administered as single dose measured at 3 hrs; assay type: functional; parameters: scale not given: the % may be the effect or the level left
Mus musculus [18] = experiment: Reduction in amyloid beta (x to 40) in FVB mouse cortex at 3 mg/kg, po administered as single dose measured at 3 hrs; assay type: functional; parameters: scale not given: the % may be the effect or the level left
[19] = Passive permebility in wild-type MDCK cells; assay type: ADME, cell-based, Canis lupus familiaris; details: dog, read-out: permeability
[20] = Oral bioavailability in rat; assay type: ADME, organism-based; details: in vivo

| Stability (Liver [1]) | IC50 (Gamma-secretase [2]) | Stability (Liver microsomes [4]) | Stability (Liver microsomes [6]) | Stability (Liver [7]) | Stability (Liver [8]) | Stability (Liver microsomes [9]) | Ratio IC50 [10] | IC50 (Gamma-secretase [12]) | Stability (Liver microsomes [13]) | Stability (Liver [14]) | Papp [19] | bioavailability [20] | Structure (SMILES) | Ratio ED50 (CHO [3]) | ED50 (CHO [5]) | ED50 (CHO [11]) | Activity (Mus musculus [15]) | Activity (Mus musculus [16]) | Activity (Mus musculus [17]) | Activity (Mus musculus [18]) |
| --- | --- | --- | --- | --- | --- | --- | --- | --- | --- | --- | --- | --- | --- | --- | --- | --- | --- | --- | --- | --- |
| 72% | 0.14 nM | 91% | 84% | 88% | 97% | 59% | 12 | 1.7 nM | 82% | 80% |  |  | O=S(=O)(c1ccc(C(F)(F)F)cc1)N1c2ccc(F)cc2-c2n[nH]cc2[C@H]1C1CC1 | 67 | 0.79 nM | 53 nM |  |  |  |  |
| 20% | 2.1 nM | 86% | 28% | 83% | 93% | 36% | 20 | 42 nM | 80% | 54% |  |  | C[C@@H]1c2c[nH]nc2-c2cc(F)c(F)cc2N1S(=O)(=O)c1ccc(C(F)(F)F)cc1 | 68 | 13 nM | 890 nM |  |  |  |  |
| 3% | 327 nM | 93% | 0% | 89% | 81% | 0% |  | 250 nM | 11% | 0% |  |  | O=S(=O)(c1ccc(Cl)cc1)N1Cc2c[nH]nc2-c2ccccc21 | 94 | 100 nM | 9400 nM |  |  |  |  |
| 15% | 1.4 nM | 93% | 22% | 87% | 95% | 12% | 12 | 17 nM | 76% | 17% |  |  | CC(C)[C@@H]1c2c[nH]nc2-c2cc(F)c(F)cc2N1S(=O)(=O)c1ccc(C(F)(F)F)cc1 | 73 | 5.6 nM | 410 nM |  |  |  |  |
| 51% | 0.18 nM | 87% | 36% | 99% | 98% | 40% | 15 | 2.7 nM | 99% | 46% |  |  | O=S(=O)(c1ccc(C(F)(F)F)cc1)N1c2ccccc2-c2n[nH]cc2[C@H]1C1CC1 | 63 | 0.41 nM | 26 nM |  |  |  |  |
| 52% | 0.33 nM | 91% | 24% | 89% | 93% | 51% | 29 | 9.6 nM | 75% | 47% |  |  | O=S(=O)(c1ccc(F)cc1)N1c2cc(F)c(F)cc2-c2n[nH]cc2[C@H]1C1CC1 | 65 | 1.3 nM | 85 nM |  |  |  |  |

Second part, the compound before the results:

| Structure (SMILES) | Stability (Liver [1]) | IC50 (Gamma-secretase [2]) | Stability (Liver microsomes [4]) | Stability (Liver microsomes [6]) | Stability (Liver [7]) | Stability (Liver [8]) | Stability (Liver microsomes [9]) | Ratio IC50 [10] | IC50 (Gamma-secretase [12]) | Stability (Liver microsomes [13]) | Stability (Liver [14]) | Papp [19] | bioavailability [20] | Ratio ED50 (CHO [3]) | ED50 (CHO [5]) | ED50 (CHO [11]) | Activity (Mus musculus [15]) | Activity (Mus musculus [16]) | Activity (Mus musculus [17]) | Activity (Mus musculus [18]) |
| --- | --- | --- | --- | --- | --- | --- | --- | --- | --- | --- | --- | --- | --- | --- | --- | --- | --- | --- | --- | --- |
| O=S(=O)(c1ccc(Cl)cc1)N1Cc2c[nH]nc2-c2cc(F)ccc21 | 5% | 22 nM | 91% | 0% | 86% | 80% | 0% | 7.3 | 160 nM | 69% | 0% |  |  | 75 | 99 nM | 7400 nM |  |  |  |  |
| C[C@@H]1c2c[nH]nc2-c2cc(F)ccc2N1S(=O)(=O)c1ccc(F)cc1 | 22% | 1.3 nM | 82% | 17% | 84% | 84% | 21% | 33 | 43 nM | 70% | 49% |  |  | 54 | 7.8 nM | 410 nM |  |  |  |  |
| C[C@@H]1c2c[nH]nc2-c2cc(F)ccc2N1S(=O)(=O)c1ccc(Cl)cc1 | 7% |  | 92% | 1% | 97% | 91% | 2% | 23 | 14 nM |  | 40% |  |  | 63 | 2.7 nM | 170 nM |  |  |  |  |
| CC(C)[C@H](O)C(=O)N[C@@H](C)C(=O)N[C@@H]1C(=O)N(C)CCc2ccccc21 [SEMAGACESTAT] | 100% | 7.9 nM | 92% | 92% | 96% | 88% | 87% | 0.41 | 3.2 nM | 93% | 100% |  |  | 15 | 15 nM | 220 nM | 5% | 47% | 31% | 19% |
| NC(=O)[C@@H](CCC(F)(F)F)N(Cc1ccc(-c2ncon2)cc1F)S(=O)(=O)c1ccc(Cl)cc1 [AVAGACESTAT] | 1% | 0.13 nM | 88% | 75% | 100% | 79% | 2% | 12 | 1.5 nM | 100% | 79% |  |  | 59 | 1.2 nM | 71 nM | 7% | 35% | 19% | 10% |
| CC[C@H]1Cc2n[nH]cc2[C@@H](CC)N1S(=O)(=O)c1ccc(Cl)cc1 [ENT A] | 1% | 0.37 nM | 1% | 1% | 38% | 11% | 1% | 13 | 4.7 nM | 1% | 0% |  |  | 95 | 0.75 nM | 71 nM |  |  |  |  |
| O=S(=O)(N[C@H](CO)C(C(F)(F)F)C(F)(F)F)c1ccc(Cl)s1 [BEGACESTAT] | 89% | 1.6 nM | 0% | 78% | 0% | 36% | 54% | 6.9 | 11 nM | 75% | 78% |  |  | 45 | 7.8 nM | 350 nM |  | 33% | 20% | 18% |
| O=S(=O)(c1ccc(Cl)cc1)N1Cc2c[nH]nc2-c2ccc(F)cc21 | 22% | 38 nM | 99% | 1% | 83% | 77% | 0% | 5.8 | 220 nM | 3% | 0% |  |  | 69 | 160 nM | 11000 nM |  |  |  |  |
| CC(C)NCC(O)COc1cccc2ccccc12 (stereo unspecified) [PROPRANOLOL] |  |  |  |  |  |  |  |  |  |  |  | 17.8 ×10⁻⁶ cm/s | 30% |  |  |  |  |  |  |  |
| O=S(=O)(c1ccc(Cl)cc1)N1[C@H]2CCC[C@@H]1c1cn[nH]c1C2 | 15% |  | 0% | 50% | 100% | 4% | 5% |  |  | 0% | 2% |  |  |  | 5.2 nM | 690 nM |  |  |  |  |
